What was measured:
[1] = tested on: Receptor-type tyrosine-protein kinase FLT3 (Homo sapiens), P36888 [UNDEFINED MUTATION]; experiment: Inhibition of FLT3 ITD mutant in human MOLM13 cells assessed as ratio of phosphorylated STAT5 to beta-actin level at 100 nM after 2 hrs by Western blot analysis relative to control; type: cell-based
MOLM-13 [2] = experiment: Cell cycle arrest in human MOLM13 cells assessed as accumulation at G2/M phase at 10 nM after 24 hrs by propidium iodide staining-based flow cytometric analysis (reference value: 13.52%); type: functional
MOLM-13 [3] = experiment: Induction of apoptosis in human MOLM13 cells assessed as late apoptotic cells at 10 uM after 48 hrs by Annexin V/propidium iodide staining based flow cytometry (reference value: 5.52%); type: functional
MOLM-13 [4] = experiment: Induction of apoptosis in human MOLM13 cells assessed as necrotic cells at 100 nM after 48 hrs by Annexin V/propidium iodide staining based flow cytometry (reference value: 0.29%); type: functional
MOLM-13 [5] = experiment: Cell cycle arrest in human MOLM13 cells assessed as accumulation at G2/M phase at 1 nM after 24 hrs by propidium iodide staining-based flow cytometric analysis (reference value: 13.52%); type: functional
[6] = target: T1, Receptor-type tyrosine-protein kinase FLT3 (Homo sapiens, UniProt P36888)
T1 sequence (P36888 whole entry): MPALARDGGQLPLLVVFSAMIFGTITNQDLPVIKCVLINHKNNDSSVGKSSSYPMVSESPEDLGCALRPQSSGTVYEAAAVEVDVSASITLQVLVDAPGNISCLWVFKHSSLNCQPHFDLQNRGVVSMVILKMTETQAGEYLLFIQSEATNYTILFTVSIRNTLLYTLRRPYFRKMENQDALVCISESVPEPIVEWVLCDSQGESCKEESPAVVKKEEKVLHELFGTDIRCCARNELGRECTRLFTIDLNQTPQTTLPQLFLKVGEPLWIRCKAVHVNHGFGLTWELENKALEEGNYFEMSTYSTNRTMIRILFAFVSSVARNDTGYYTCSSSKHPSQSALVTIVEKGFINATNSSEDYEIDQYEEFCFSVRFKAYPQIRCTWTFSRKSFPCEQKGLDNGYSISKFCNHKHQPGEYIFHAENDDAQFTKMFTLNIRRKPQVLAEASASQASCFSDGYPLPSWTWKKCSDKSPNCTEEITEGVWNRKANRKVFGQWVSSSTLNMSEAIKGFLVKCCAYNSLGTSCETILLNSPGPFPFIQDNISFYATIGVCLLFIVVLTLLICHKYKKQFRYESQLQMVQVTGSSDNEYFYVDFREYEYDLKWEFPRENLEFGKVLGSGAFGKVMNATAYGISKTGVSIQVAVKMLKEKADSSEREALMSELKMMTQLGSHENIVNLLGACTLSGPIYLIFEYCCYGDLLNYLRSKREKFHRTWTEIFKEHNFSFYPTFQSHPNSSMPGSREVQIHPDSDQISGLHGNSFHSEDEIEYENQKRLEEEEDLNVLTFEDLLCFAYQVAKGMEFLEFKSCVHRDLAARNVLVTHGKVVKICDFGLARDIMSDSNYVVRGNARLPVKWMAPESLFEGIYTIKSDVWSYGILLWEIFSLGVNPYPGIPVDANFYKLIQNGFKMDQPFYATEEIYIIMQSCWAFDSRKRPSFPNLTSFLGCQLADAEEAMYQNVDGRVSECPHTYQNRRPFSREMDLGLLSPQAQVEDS

[7] = target: Mast/stem cell growth factor receptor Kit (Homo sapiens, UniProt P10721); experiment: Inhibition of recombinant human c-Kit (544 to end residues) using poly(Glu, Tyr) 4:1 as substrate measured after 40 mins in presence of [gamma-33P]-ATP by scintillation counting analysis
MOLM-13 [8] = experiment: Antitumour activity against human MOLM13 cells xenografted in NOD/SCID mouse assessed as tumour growth inhibition at 1 mg/kg, po qd for 10 days measured every two days during compound dosing by caliper method relative to control; type: functional; conditions: MOLM-13, po, read-out: TGI
MV4-11 [9] = experiment: Induction of apoptosis in human MV4-11 cells assessed as late apoptotic cells at 10 uM after 48 hrs by Annexin V/propidium iodide staining based flow cytometry (reference value: 2.83%); type: functional
MV4-11 [10] = experiment: Induction of apoptosis in human MV4-11 cells assessed as viable cells at 10 nM after 48 hrs by Annexin V/propidium iodide staining based flow cytometry (reference value: 94.4%); type: functional; conditions: MV4-11, 48 h, read-out: Activity
MOLM-13 [11] = experiment: Cell cycle arrest in human MOLM13 cells assessed as accumulation at S phase at 10 nM after 24 hrs by propidium iodide staining-based flow cytometric analysis (reference value: 41.95%); type: functional
MV4-11 [12] = experiment: Cell cycle arrest in human MV4-11 cells assessed as accumulation at G2/M phase at 1 nM after 24 hrs by propidium iodide staining-based flow cytometric analysis (reference value: 21.12%); type: functional
MOLM-13 [13] = experiment: Antitumour activity against human MOLM13 cells xenografted in po dosed NOD/SCID mouse assessed as tumour growth inhibition administered daily for 10 days; type: functional, organism-based
MOLM-13 [14] = experiment: Induction of apoptosis in human MOLM13 cells assessed as early apoptotic cells at 1 nM after 48 hrs by Annexin V/propidium iodide staining based flow cytometry (reference value: 5.97%); type: functional
[15] = tested on: Receptor-type tyrosine-protein kinase FLT3 (Homo sapiens), P36888 [UNDEFINED MUTATION]; experiment: Inhibition of FLT3 ITD mutant in human MV4-11 cells assessed as ratio of phosphorylated STAT5 to beta-actin level at 30 nM after 2 hrs by Western blot analysis relative to control; type: cell-based
MV4-11 [16] = experiment: Cell cycle arrest in human MV4-11 cells assessed as accumulation at G0/G1 phase at 10 nM after 24 hrs by propidium iodide staining-based flow cytometric analysis (reference value: 48.76%); type: functional
BaF3 = experiment: cells; conditions: Mus musculus, BaF3, 72 h
Description: Antiproliferative activity against mouse BAF3 cells harboring FLT3-ITD-F691L mutant measured after 72 hrs by MTT assay

HL-60 = experiment: Antiproliferative activity against human HL60 cells harboring wild-type FLT3 measured after 72 hrs by MTT assay; type: functional, cell-based; conditions: HL-60, 72 h
MOLM-13 [17] = experiment: Induction of apoptosis in human MOLM13 cells assessed as viable cells at 10 uM after 48 hrs by Annexin V/propidium iodide staining based flow cytometry (reference value: 88.2%); type: functional; conditions: MOLM-13, 48 h, read-out: Activity
[18] = target: Receptor-type tyrosine-protein kinase FLT3 (Homo sapiens) (UniProt P36888); experiment: Inhibition of FLT3 autophosphorylation in human MV4-11 cells assessed as ratio of phosphorylated FLT3 to beta-actin level at 30 nM after 2 hrs by Western blot analysis relative to control; type: cell-based
MOLM-13 [19] = experiment: Induction of apoptosis in human MOLM13 cells assessed as early apoptotic cells at 10 uM after 48 hrs by Annexin V/propidium iodide staining based flow cytometry (reference value: 5.97%); type: functional
[20] = Oral bioavailability in Sprague-Dawley rat at 5 mg/kg by LC-MS/MS analysis; type: ADME, organism-based; conditions: in vivo
MV4-11 [21] = experiment: Cell cycle arrest in human MV4-11 cells assessed as accumulation at G2/M phase at 30 nM after 24 hrs by propidium iodide staining-based flow cytometric analysis (reference value: 21.12%); type: functional

Chain of Mast/stem cell growth factor receptor Kit (P10721 whole entry): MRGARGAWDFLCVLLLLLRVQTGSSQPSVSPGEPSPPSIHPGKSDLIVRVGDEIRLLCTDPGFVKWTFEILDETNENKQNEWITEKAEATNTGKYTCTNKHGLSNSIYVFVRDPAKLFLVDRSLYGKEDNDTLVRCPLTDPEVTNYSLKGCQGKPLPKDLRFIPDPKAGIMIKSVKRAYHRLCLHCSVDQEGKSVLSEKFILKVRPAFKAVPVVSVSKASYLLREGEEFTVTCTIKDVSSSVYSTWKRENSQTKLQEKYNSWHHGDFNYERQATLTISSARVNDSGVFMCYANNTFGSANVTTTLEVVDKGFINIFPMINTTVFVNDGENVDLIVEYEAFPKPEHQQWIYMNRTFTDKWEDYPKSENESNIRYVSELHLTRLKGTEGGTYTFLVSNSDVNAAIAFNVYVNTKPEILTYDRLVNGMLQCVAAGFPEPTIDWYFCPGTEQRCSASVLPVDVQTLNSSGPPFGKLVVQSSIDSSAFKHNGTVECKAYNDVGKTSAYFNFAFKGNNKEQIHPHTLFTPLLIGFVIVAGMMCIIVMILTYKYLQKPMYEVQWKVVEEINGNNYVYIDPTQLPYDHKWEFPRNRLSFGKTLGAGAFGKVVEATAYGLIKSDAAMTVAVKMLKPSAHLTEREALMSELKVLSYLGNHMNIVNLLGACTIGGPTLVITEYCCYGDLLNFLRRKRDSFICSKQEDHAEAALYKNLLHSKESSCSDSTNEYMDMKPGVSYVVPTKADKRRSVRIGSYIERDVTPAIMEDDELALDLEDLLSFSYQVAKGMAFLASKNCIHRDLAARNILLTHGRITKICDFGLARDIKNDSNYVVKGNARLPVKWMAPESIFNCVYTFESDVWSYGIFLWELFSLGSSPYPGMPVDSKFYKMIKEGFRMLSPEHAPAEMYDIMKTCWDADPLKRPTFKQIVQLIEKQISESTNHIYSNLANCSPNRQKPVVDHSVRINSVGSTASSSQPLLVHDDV

- fold change (FC) [1]: 0
- IC50 [6]: 7 nM
- IC50 [7]: > 300 nM
- fold change (FC) [15]: 0
- IC50 (BaF3): 13 nM
- IC50 (HL-60): > 1000 nM
- fold change (FC) [18]: 0
- bioavailability [20]: 59.5%
Structure (SMILES): C=CCn1cc(-c2ccc(NC(=O)Nc3cc(C(C)(C)C)on3)cc2)c2c(N)ncnc21
- Activity (MOLM-13 [2]): 2.37%
- Activity (MOLM-13 [3]): 98.5%
- Activity (MOLM-13 [4]): 0.19%
- Activity (MOLM-13 [5]): 11%
- inhibition in vivo at 1 mg/kg (MOLM-13 [8]): 77.9%
- Activity (MV4-11 [9]): 66.4%
- viability at 0.01 µM (MV4-11 [10]): 79.3%
- Activity (MOLM-13 [11]): 3.01%
- Activity (MV4-11 [12]): 16.55%
- TGI (MOLM-13 [13]): Dose-dependent effect
- Activity (MOLM-13 [14]): 5.67%
- Activity (MV4-11 [16]): 95.74%
- viability at 10 µM (MOLM-13 [17]): 0.48%
- Activity (MOLM-13 [19]): 0.61%
- Activity (MV4-11 [21]): 1.79%

From ChEMBL document CHEMBL4385604, “Identification of Pyrrolo[2,3- d]pyrimidine-Based Derivatives as Potent and Orally Effective Fms-like Tyrosine Receptor Kinase 3 (FLT3) Inhibitors for Treating Acute Myelogenous Leukemia” (J Med Chem, 2019)
